The values below come from patent US7598377B2, “Inhibition of phosphoinositide 3-kinase β” (AstraZeneca AB, priority 2002, dated 2009).

Test [1] addresses T1, P110 δ (Homo sapiens, UniProt O00329).
T1 construct: The δ isoform was immunoprecipitated from THP-1 cells; endogenous in cells; host or cells: THP-1 cells (immunoprecipitated with antibody sc-7176)
The test can be described thus: Isoform selective in vitro PI3K enzyme assay (Example 13), δ from THP-1 cells. The class given is biochemical. The conditions noted are these: read-out: P110 δ IC50s. The procedure:
In vitro enzyme assays were conducted as a primary screen to determine drug candidate isoform affinity and specificity. […] The γ isoform was produced as a recombinant protein in the Kinacia laboratories. […] Standard phosphorylation assays using phosphatidylinositol and ^32P were used to measure the enzyme activity in the immunoprecipates in the presence or absence of an inhibitor. Enzyme activity was determined over a range of inhibitor concentrations to establish an IC50 value.

Test [2] deals with platelet rich plasma. The test is described as follows: CD9-antibody induced platelet aggregation of platelet rich plasma. The class given is cell-based. Conditions: read-out: Platelet aggregation v. CD9 antibody Example 10 IC50/. The procedure:
The inhibitory effect of TGX286 and KN327 on platelet aggregation induced by the antibody CD9 was examined in platelet rich plasma (PRP). A suspension of PRP was incubated with 20-100 nM TGX286 or control buffer (0.1% DMSO) and treated with an aliquot of the antibody. Aggregation under stirring was monitored in a four channel aggregometer for 10 minutes. The level of aggregation was measured as the change in light transmission through the sample cell.

Test [3] has as its system platelet thrombus formation in citrated whole blood. The test can be described thus: Platelet thrombus formation under flow (Example 12, 600 s^−1). The class given is cell-based. The conditions noted are these: read-out: Inhibition of Thrombus formation Example 12 IC50/. As to the method:
Blood was perfused through von Willebrand factor—(vWf) coated microcapillary tubes for 2 minutes at 600 s^−1. Non-adherent cells were removed by perfusion of buffer for 2 minutes at 600 s^−1 and any adherent erythrocytes lysed through treatment with 1% ammonium oxalate. Adherent platelets were then lysed through addition of 1% Triton X-100 and lactate dehydrogenase (LDH) levels (U/L) analysed by spectrophotometry.

Test [4] addresses T2, P110 γ (Homo sapiens, UniProt P48736).
T2 construct: made in house
The test can be described thus: Isoform selective in vitro PI3K enzyme assay (Example 13), γ recombinant. The class given is biochemical. Conditions: read-out: P110 γ IC50s. As to the method: In vitro enzyme assays were conducted as a primary screen to determine drug candidate isoform affinity and specificity. The α and β isoforms of the PI3K were immunoprecipitated from a platelet lysate, using an antibodies obtained from Santa Cruz Biotechnology, that recognized specific regions of p110α (sc-7174) and β (sc-603) isoforms. The γ isoform was produced as a recombinant protein in the Kinacia laboratories. […] Standard phosphorylation assays using phosphatidylinositol and ^32P were used to measure the enzyme activity in the immunoprecipates in the presence or absence of an inhibitor. Enzyme activity was determined over a range of inhibitor concentrations to establish an IC50 value.

The subject of test [5] is neutrophils. The test is described as follows: Neutrophil ROS response (fmlp, DHR, FACS). The class given is cell-based, human. The conditions noted are these: fmlp stimulation, read-out: ROS release from neutrophils Example 14 IC50/. The procedure: 3 ml of preservative free whole blood was placed in a 50 ml conical tube. 48 ml of erythrocyte lysing solution and gently mixed by inversion for 10 min at 25° C. on a haematology nutator and subsequently centrifuged for 10 min at 350×g at 25° C. in a table top centrifuge. The Leukocyte rich pellet was resuspended in phosphate buffered saline supplemented with […] (PBS-gel) and centrifuged as above. The Leukocyte pellet was washed once with Hanks' balanced salt solution (HBSS) and resuspended at a final cell count of 2×10^6/ml and used immediately.
Reactive Oxygen Species (ROS) generation is one of the hall-marks of neutrophil activation. A number of chemokines and cytokines potentiate ROS generation by neutrophils. […] ROS generation was measured by monitoring the oxidation of intracellular dihydrorhodamine 123 (DHR) via fluorescence activated cell sorting (FACS) by modification of the method of Robinson et al., (pp 9.7.5-9.7.9 in Curr. Protocols in Cytometry (1997)). A Leukocyte suspension was bulk loaded with 2 μl of 50 mM DHR per ml cells ([…]) and incubated at 37° C. for 12 min. […] Fluorescence base-line data was calibrated using these gated control neutrophils. Stimulated cell samples were analysed and linear green fluorescence (DHR) was monitored for 5000 gated neutrophils from each sample. […]

Test [6] relates to PI 3-kinase immunoprecipitated from human platelets (p85/110 form). The test can be described thus: In vitro PI 3-kinase assay (Example 8), Platelet IP (p85). The class given is biochemical. Conditions: read-out: Platelet IP (p85) IC50s. As to the method:
The effect of pyridine-substituted compounds on PI 3-kinase activity was determined using an in vitro PI 3-kinase assay. This assay was performed using PI 3-kinase immunoprecipitated from human platelets as the enzyme and PI as the substrate. The PI 3-kinase activity was quantitated by measuring the enzymatic incorporation of [^32P] into PI, forming PI([^32P]-3)P, as previously described (Susa et al., 1992, The Journal of Biological Chemistry 267(32):22951-22956.
Washed human platelets were lysed in Triton X-100 lysis buffer (10 mM Tris, pH 7.4, 1% Triton X-100, 2 mM EDTA, 1 mM PMSF) for 30 minutes. The Triton X-100 insoluble fraction was removed by centrifugation of the cell lysates at 15,000 g for 10 minutes. PI 3-kinase was immunoprecipitated by mixing 500 μg of the cell lysate with 1 μg of a rabbit anti-rat antibody against the p85/110 form of PI 3-kinase and 30 μl of 50% Protein A-sepharose beads for 2 hours at 4° C. The Protein A-sepharose-bound PI 3-kinase was isolated by pelleting the beads at 15,000 g for 5 seconds, and washing three times with ice-cold Triton X-100 lysis buffer followed by four washes with PI 3-kinase assay buffer (20 mM HEPES, pH 7.4, 1 mM EGTA, 5 mM MgCl2).
PI stored in CHCl3 was dried under N2, resuspended in the lipid buffer (50 mM HEPES, pH 7.2, 1 mM EDTA) at a final concentration of 330 μg/ml, and sonicated for 6 minutes on ice. PI([^32P]-3)P was generated by mixing the immunoprecipitated PI 3-kinase for 20 minutes with 40 μl of the PI, 10 μl of ATP (1 mM) and ^32P-r-ATP (0.5 μCi, 1 μCi/nmol), 10 μl of 10× kinase buffer, in a final assay volume of 100 μl adjusted with H2O. TGX-was preincubated with the PI 3-kinase for 5 minutes prior to the addition of ATP. The assay was terminated with 100 μl of 1 N HCl, and the PI([^32P]-3)P product extracted with 200 μl chloroform:methanol (1:1) and 500 μl 2 M KCl. The PI([^32P]-3)P in the chloroform phase was resolved by thin layer chromatography using a solvent system containing CHCl3:MeOH:HAC:H2O (43:38:5:7) (v:v:v:v), and visualized by autoradiography. The PI([^32P]-3)P spots were then scraped off from the TLC plates, deacylated with 1 ml methylamine:butanol:methanol (42:9:47) (v:v:v) for 4 hours at 53° C., and quantitated using a liquid scintillation counter (LKB 1209 RackBETA).

Test [7] relates to carotid artery cyclic flow reductions in rat. The test is described as follows: Animal model of internal carotid artery occlusion (Folts). The class given is in vivo. The conditions noted are these: 14.0 mg/kg via the jugular vein. From the text:
This model is used to investigate the effects of antithrombotic drugs on clotting time in vivo in response to a crash injury followed by arterial stenosis.
The carotid artery of an anesthetized rat is dissected out, and an electromagnetic flow probe is placed around the artery to measure blood flow. Proximal to the flow probe, the artery is clamped with surgical forceps covered with silicone tubing to cause intimal and medial damage to the vessel wall. A ligature, or plastic cylinder of appropriate inside diameter is laced around the artery to produce a 70% reduction in arterial diameter.
Platelets aggregate in the area of the stenosed and damaged arterial vessel, gradually forming an occlusive platelet thrombus, seen as a decrease in blood flow. As the thrombus forms, blood pressure increases, causing the thrombus to fragment and embolize distal to the stenosed site. […] This causes a sudden restoration of blood flow. Platelets again aggregate in the area of the stenosed and damaged arterial vessel, repeating the thrombus-embolization pattern. This acute, platelet-mediated thrombus formation, followed by embolization, causes Cyclic Flow Reductions (CFR) in blood flow. Once a rat produces regular CFRs, an anti-thrombotic compound or vehicle control is administered via the jugular vein.

Test [8] deals with platelets on immobilized vWf. The test is described as follows: In vitro flow studies: platelet calcium flux and adhesion on immobilized vWf. The class given is cell-based. The conditions noted are these: vWf matrix, shear rate gradient up to 10,000 s^−1 over 1 s. The procedure:
The use of an in vitro-flow based adhesion assay enables us to simultaneously analyze platelet adhesion dynamics and activation (by monitoring cytosolic calcium flux) on immobilized von Willebrand factor (vWf). Briefly, isolated platelets are perfused through vWf (100 μg/ml) coated microcapillary tubes and analysis of cytosolic calcium flux conducted in real-time by confocal microscopy.
Washed platelets (1.5×10^9) suspended in PWB were incubated with the calcium indicator dyes, Oregon Green 488 BAPTA-1, AM (1 μM) and Fura Red, AM (1.25 μM), for 30 min at 37° C. Platelets were washed twice with PWB prior to being resuspended in Tyrode's buffer containing 1 mM calcium.
For static adhesion assays, platelets were allowed to settle on the surface of vWf-coated coverslips for 30 min at 37° C. For flow assays, platelets were either perfused over a vWf-coated microcapillary tube at a constant shear rate of 600, 1800 or 10,000 s^−1 or allowed to settle on the surface of a vWf-coated microcapillary tube prior to being accelerated through a shear gradient of 10,000 s^−1 over a 1 s interval. Real time platelet calcium flux in individual platelets was monitored at 1 s intervals over the 30 min incubation period or at 0.586 s intervals for up to 175 s for static and flow-based assays, respectively.
On the technique in general: A change in cytosolic calcium serves as a functional read-out for many receptors and channels.

In test [9] the test system is T3, various isoforms of PI3K.
T3 construct: The γ isoform was produced as a recombinant protein in the Kinacia laboratories
The conditions noted are these: measured IC50 stated to agree with previously reported values; read-out: IC50 against the various isoforms of PI3K; cited from earlier work.

Test [10] relates to washed platelets. The test can be described thus: Flow-based reconstitution assay (platelet adhesion to vWf). The class given is cell-based. The conditions noted are these: 1800 s^−1. The procedure:
The platelets and reconstituted red blood cells were perfused through vWf-coated glass microslides for 1 minute at a shear rate of 1800 s^−1. Non-adherent cells were removed by washing for 10 minutes at 1800 s^−1 and the number of adherent platelet were quantitated and expressed as the mean±SEM.

For test [11], the target named is T4, P110 β isoform (Homo sapiens, UniProt P42338).
T4 construct: The α and β isoforms of the PI3K were immunoprecipitated from a platelet lysate; from tissue; host or cells: washed platelets (lysate, immunoprecipitated with anti-p110β antibody)
T4 sequence (P42338 whole entry, canonical isoform): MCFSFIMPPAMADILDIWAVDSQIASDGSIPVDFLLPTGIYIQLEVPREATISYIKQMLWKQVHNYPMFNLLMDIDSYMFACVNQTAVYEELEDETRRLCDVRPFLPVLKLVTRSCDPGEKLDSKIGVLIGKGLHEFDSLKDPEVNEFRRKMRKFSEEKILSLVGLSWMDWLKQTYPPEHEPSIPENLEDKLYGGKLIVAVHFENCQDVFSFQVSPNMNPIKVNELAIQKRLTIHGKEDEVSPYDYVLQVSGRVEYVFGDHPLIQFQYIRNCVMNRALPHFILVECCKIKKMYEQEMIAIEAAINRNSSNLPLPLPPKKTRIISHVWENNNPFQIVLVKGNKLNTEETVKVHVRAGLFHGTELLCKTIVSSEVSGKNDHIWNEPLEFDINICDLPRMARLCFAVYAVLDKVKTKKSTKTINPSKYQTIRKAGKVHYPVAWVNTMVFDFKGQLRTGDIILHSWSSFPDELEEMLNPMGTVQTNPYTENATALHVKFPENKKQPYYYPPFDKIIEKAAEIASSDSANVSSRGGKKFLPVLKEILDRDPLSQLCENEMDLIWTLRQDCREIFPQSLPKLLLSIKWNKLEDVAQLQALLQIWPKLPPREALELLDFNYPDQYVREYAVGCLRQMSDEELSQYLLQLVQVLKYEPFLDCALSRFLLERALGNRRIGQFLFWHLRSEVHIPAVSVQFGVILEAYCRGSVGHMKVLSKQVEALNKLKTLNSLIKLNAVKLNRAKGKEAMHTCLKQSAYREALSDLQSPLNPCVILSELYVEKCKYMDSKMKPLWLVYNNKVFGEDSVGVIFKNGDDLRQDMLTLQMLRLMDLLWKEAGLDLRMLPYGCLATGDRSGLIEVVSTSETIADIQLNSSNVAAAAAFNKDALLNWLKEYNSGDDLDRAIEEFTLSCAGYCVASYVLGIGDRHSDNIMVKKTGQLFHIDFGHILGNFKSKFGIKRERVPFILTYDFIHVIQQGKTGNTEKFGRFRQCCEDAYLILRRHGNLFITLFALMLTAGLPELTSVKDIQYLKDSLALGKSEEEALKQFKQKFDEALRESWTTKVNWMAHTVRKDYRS
T4 sequence (P27986 whole entry partner, canonical isoform): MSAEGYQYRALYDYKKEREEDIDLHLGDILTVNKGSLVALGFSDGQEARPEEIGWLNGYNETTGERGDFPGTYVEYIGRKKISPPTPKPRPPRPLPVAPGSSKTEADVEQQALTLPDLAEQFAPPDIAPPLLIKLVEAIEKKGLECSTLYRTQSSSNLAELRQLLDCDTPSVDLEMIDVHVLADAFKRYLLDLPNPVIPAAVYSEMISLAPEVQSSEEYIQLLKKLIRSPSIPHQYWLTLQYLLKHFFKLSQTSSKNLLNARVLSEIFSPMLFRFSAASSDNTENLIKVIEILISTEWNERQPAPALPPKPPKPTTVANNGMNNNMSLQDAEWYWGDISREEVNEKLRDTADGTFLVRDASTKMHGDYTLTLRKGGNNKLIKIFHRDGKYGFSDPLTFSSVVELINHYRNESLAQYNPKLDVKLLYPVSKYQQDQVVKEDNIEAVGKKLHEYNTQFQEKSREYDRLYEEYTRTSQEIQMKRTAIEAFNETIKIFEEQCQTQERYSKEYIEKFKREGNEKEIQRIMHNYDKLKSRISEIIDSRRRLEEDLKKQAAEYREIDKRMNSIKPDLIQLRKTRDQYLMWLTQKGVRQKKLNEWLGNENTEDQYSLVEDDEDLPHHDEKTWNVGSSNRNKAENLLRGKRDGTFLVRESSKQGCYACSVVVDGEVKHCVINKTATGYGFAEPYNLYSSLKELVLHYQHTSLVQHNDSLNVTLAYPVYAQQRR
The test is described as follows: Isoform selective in vitro PI3K enzyme assay (Example 13), β. The class given is biochemical. As to the method: In vitro enzyme assays were conducted as a primary screen to determine drug candidate isoform affinity and specificity. The α and β isoforms of the PI3K were immunoprecipitated from a platelet lysate, using an antibodies obtained from Santa Cruz Biotechnology, that recognized specific regions of p110α (sc-7174) and β (sc-603) isoforms. The γ isoform was produced as a recombinant protein in the Kinacia laboratories. The δ isoform was immunoprecipitated from THP-1 cells in a similar manner using a δ isoform specific antibody (sc-7176). Standard phosphorylation assays using phosphatidylinositol and ^32P were used to measure the enzyme activity in the immunoprecipates in the presence or absence of an inhibitor. Enzyme activity was determined over a range of inhibitor concentrations to establish an IC50 value.

The test system of test [12] is U937 cells. The test is described as follows: Cell proliferation assay. The class given is cell-based. Conditions: Homo sapiens, U-937; read-out: Anti-proliferative activity v. U937 cells Example 16 IC50/. From the text: The cytotoxic activity of the compounds was monitored over four days by counting cell number, and determining cell viability using a colorimetric assay of metabolic activity.

Where two headings read alike, the source gives them in different places.

T1 sequence (O00329 whole entry, canonical isoform): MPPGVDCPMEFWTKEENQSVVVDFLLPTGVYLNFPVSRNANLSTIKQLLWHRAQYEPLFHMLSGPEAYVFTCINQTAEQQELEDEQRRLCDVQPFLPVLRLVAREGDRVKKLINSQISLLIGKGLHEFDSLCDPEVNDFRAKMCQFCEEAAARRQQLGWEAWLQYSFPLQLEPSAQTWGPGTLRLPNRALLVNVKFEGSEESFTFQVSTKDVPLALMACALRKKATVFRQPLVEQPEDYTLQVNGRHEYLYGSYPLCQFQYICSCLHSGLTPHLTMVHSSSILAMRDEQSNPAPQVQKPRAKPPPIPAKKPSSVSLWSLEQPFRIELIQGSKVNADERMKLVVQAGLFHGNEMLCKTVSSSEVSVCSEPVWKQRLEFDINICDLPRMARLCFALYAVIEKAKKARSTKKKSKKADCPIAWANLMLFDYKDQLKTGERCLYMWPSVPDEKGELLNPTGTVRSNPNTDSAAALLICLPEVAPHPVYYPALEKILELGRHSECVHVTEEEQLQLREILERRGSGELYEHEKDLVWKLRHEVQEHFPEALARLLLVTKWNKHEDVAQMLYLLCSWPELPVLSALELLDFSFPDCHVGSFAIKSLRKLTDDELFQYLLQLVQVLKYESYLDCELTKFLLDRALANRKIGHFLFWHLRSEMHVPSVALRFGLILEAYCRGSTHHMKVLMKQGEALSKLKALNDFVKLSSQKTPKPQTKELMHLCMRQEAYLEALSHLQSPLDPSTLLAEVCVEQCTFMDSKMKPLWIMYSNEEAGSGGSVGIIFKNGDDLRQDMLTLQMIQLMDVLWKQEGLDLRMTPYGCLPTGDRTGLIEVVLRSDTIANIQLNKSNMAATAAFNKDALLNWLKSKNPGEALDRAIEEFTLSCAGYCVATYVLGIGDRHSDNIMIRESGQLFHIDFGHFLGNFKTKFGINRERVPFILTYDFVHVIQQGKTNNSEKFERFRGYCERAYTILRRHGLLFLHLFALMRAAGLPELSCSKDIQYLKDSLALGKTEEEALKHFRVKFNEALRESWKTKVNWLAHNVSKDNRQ
T1 sequence (P27986 whole entry partner, canonical isoform): as the sequence (P27986 whole entry partner, canonical isoform) above
T2 sequence (P48736 whole entry, species assumed): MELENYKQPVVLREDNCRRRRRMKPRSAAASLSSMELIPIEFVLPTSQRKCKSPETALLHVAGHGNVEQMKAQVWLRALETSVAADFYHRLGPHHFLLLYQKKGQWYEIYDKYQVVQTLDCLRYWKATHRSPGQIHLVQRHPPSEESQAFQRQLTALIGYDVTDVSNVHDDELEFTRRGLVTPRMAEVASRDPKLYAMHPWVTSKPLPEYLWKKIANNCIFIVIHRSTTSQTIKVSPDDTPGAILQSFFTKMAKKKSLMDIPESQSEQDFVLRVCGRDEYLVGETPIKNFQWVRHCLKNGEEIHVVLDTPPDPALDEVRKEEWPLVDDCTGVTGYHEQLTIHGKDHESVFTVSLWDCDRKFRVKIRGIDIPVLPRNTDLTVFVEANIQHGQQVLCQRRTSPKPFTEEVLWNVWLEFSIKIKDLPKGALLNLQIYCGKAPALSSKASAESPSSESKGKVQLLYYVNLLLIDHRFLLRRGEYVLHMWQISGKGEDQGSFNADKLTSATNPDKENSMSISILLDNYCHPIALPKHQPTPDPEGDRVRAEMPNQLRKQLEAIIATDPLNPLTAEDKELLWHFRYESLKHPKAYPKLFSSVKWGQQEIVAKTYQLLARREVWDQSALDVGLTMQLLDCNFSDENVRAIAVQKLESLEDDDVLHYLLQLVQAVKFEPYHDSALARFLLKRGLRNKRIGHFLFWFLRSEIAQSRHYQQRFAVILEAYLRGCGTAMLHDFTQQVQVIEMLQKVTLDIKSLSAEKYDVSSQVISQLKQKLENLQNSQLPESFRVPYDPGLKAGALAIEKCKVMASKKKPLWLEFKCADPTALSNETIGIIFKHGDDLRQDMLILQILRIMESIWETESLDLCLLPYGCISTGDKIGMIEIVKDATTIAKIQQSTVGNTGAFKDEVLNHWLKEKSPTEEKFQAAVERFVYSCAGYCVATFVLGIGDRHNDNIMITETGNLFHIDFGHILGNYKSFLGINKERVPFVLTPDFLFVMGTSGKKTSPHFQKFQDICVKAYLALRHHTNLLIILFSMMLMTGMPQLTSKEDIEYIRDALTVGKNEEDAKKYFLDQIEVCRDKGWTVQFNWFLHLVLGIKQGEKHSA

For the compound “8-(1-(2-aminophenylamino)ethyl-2-(4-pyridinyl)-4H-benzopyran-1-one [KN327]”, the IC50 was 500 nM in test [1]; 200 nM in test [2]; 250 nM in [3]; 15000 nM in [4]; 78 nM in [5]; 20 nM in test [6]. In addition, the “treated animals returned to baseline within 10 minutes” value in [7] was found to be 80%.
Take `O=c1cc(N2CCOCC2)oc2c(-c3ccccc3)cccc12` [LY294002, 8-phenyl-2-(4-morpholinyl)-4H-benzopyran-4-one, reference compound]: the “platelet responses to accelerated shear” value in test [8] is listed as “eliminates platelet responses to accelerated shear”. Besides, the IC50 in [9] was 500 to 1500 nM.
Take `Cc1cc(C(C)Nc2ccccc2)c2oc(-c3ccncc3)cc(=O)c2c1` (stereo not shown) [TGX-286, 8-1-(phenylamino)ethyl-6-methyl-2-(4-pyridinyl)-4H-1-benzopyran-4-one]: the “decrease in platelet adhesion” value in test [10] (10 nM) stood at 51%; in [10] (25 nM) it was 67%; in [10] (50 nM), 86%. Moreover, the IC50 stood at 100 nM in [2]; 500 nM in [3] (Platelet); 5 nM in test [5] (Homo sapiens, Neutrophil); 2 nM in test [11]; 2 nM in [6]; 5000 nM in [12]. Further, the “treated animals returned to baseline within 10 minutes” value in test [7] is reported as 80%.
